Reference: ChEMBL document CHEMBL1201862, “PubChem BioAssay data set” (2004)
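Five compound concentrations were applied to cells in 96-well plates for 48 hours; endpoints were derived by simple linear interpolation of the resulting dose-response curve. GI50 = concentration required for 50% inhibition of growth.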 Active and inactive are the calls of the source. Rule as the data show it: active = GI50 up to about 1.1 µM and inactive = higher. Starred links: 1 amine or outer side, 2 acyl side, 3 side chain; linkers in the order of their positions; H or OH if unused. Positions of bridges follow the written chain, without caps; N, C: chain ends. Non-standard residues stand in square brackets, D forms with d. Residues, ends and D or L forms follow the SMILES beside them. Chains are numbered I, II in the order given. Actinocin(1to9) = Cc1c2oc3c(C)ccc(C(=O)[*:2])c3nc-2c(C(=O)[*:1])c(N)c1=O; aThr = C[C@H](O)[C@H](N)C(=O)O; NMeV = CN[C@H](C(=O)O)C(C)C; Sar = CNCC(=O)O

Columns and labels:
Experiment in all cases: DTP human tumour cell line panel, 48 h
[1] = system: MOLT-4
[2] = system: OVCAR-3
[3] = system: BT-549
[4] = system: HOP-92
[5] = system: IGROV-1
[6] = system: RXF 393
[7] = system: Malme-3M
[8] = system: MCF7
[9] = system: NCI-H522
[10] = system: PC-3
[11] = system: MDA-MB-231
[12] = system: T47D
[13] = system: HCT-15
[14] = system: KM12
[15] = system: COLO 205
[16] = system: SF-268
[17] = system: SNB-19
[18] = system: EKVX
[19] = system: OVCAR-4
[20] = system: SF-295

Measured: GI50

O=c1[nH]c(=O)n(CCOCP(=O)(O)O)nc1Br
> 100 µM: [13]
inactive: [1] > 100 µM | [2] > 100 µM | [3] > 100 µM | [4] > 100 µM | [5] > 100 µM | [6] > 100 µM | [7] > 100 µM | [8] > 100 µM | [9] > 100 µM | [10] > 100 µM | [11] > 100 µM | [12] > 100 µM | [14] > 100 µM | [15] > 100 µM | [16] > 100 µM | [17] > 100 µM | [18] > 100 µM

CC(C)=CCC[C@@H](C)C1=CC(=O)C(C)=C(O)C1=O [ISOPEREZONE]
inactive: [1] 1.71 µM | [19] 7.1 µM | [2] 4.19 µM | [3] 5.78 µM | [4] 2.5 µM | [5] 9.2 µM | [6] 2.67 µM | [7] 10.2 µM | [20] 14.1 µM | [8] 3.62 µM | [9] 1.36 µM | [10] 5.01 µM | [11] 6.38 µM | [12] 2.13 µM | [14] 5.09 µM | [15] 10.2 µM | [16] 10.4 µM | [17] 15.9 µM | [18] 5.56 µM
2.66 µM: [13]

CC1(C)N=C(N)N=C(N)N1c1cccc(OCc2cccc(N)c2)c1
inactive: [1] 8.02 µM | [19] > 69.5 µM | [2] 39.6 µM | [3] > 65.9 µM | [4] > 49 µM | [5] 3.31 µM | [6] 41.9 µM | [7] > 71.9 µM | [20] > 79.6 µM | [8] 39.9 µM | [9] 26.4 µM | [10] > 38.7 µM | [11] > 71.4 µM | [12] > 100 µM | [14] 49.9 µM | [15] 37.8 µM | [16] 14.3 µM | [17] 23.8 µM | [18] > 88.3 µM
> 100 µM: [13]

Cc1c2oc3c(C)ccc(C(=O)N[C@@H]4C(=O)N[C@H](C(C)C)C(=O)N5CCC[C@H]5C(=O)N(C)CC(=O)N(C)[C@@H](C(C)C)C(=O)O[C@H]4C)c3nc-2c(C(=O)N[C@@H]2C(=O)N[C@H](C(C)C)C(=O)N3CCC[C@H]3C(=O)N(C)CC(=O)N(C)[C@@H](C(C)C)C(=O)O[C@H]2C)c(N)c1=O (I: [aThr][dV]P[Sar][NMeV] / II: [aThr][dV]P[Sar][NMeV]; ester I:1-I:C, II:1-II:C; linker I:N-II:N via Actinocin(1to9))
active: [1] 0.00048 µM | [19] 0.00583 µM | [2] 0.00361 µM | [3] 0.00169 µM | [4] 0.00314 µM | [5] 0.00217 µM | [6] 0.00258 µM | [7] 0.00119 µM | [20] 0.00203 µM | [8] 0.000189 µM | [9] 0.000506 µM | [10] 0.00134 µM | [11] 0.00455 µM | [12] 0.000628 µM | [14] 0.00128 µM | [15] 0.00106 µM | [16] 0.00148 µM | [17] 0.00161 µM | [18] 0.012 µM
0.02 µM: [13]

OC(Cc1cccnc1)(c1ccccc1)c1ccccc1
inactive: [19] > 100 µM | [2] > 100 µM | [3] 73.6 µM | [4] > 100 µM | [5] > 100 µM | [6] > 100 µM | [7] > 100 µM | [20] 53.8 µM | [8] > 100 µM | [9] 47 µM | [10] > 100 µM | [11] > 100 µM | [12] 59 µM | [14] 59.7 µM | [15] > 100 µM | [16] > 100 µM | [17] > 100 µM | [18] 17.8 µM
> 100 µM: [13]

CCOC(=O)NC(Nc1ccc(OC(F)(F)F)cc1)(C(F)(F)F)C(F)(F)F
inactive: [1] > 100 µM | [2] > 100 µM | [3] > 100 µM | [4] > 100 µM | [5] > 100 µM | [6] > 100 µM | [7] > 100 µM | [20] > 100 µM | [8] > 100 µM | [9] > 100 µM | [10] > 100 µM | [11] > 100 µM | [12] > 100 µM | [14] > 100 µM | [15] > 100 µM | [16] > 100 µM | [17] > 100 µM | [18] > 100 µM
> 100 µM: [13]

CCOC(=O)c1sc2nc(SC)nc(Nc3ccc4c(c3)OCCO4)c2c1N
inactive: [1] 8.05 µM | [19] 10.7 µM | [2] 13.5 µM | [3] 16 µM | [4] 13.1 µM | [5] 29.9 µM | [6] 3.93 µM | [7] 12 µM | [20] 42.3 µM | [8] 10.5 µM | [9] 6.76 µM | [10] 13.2 µM | [11] 11.1 µM | [12] 6.34 µM | [14] 44.6 µM | [15] 5.45 µM | [16] 4.69 µM | [17] 17.6 µM | [18] 9.59 µM

N#Cc1c(N)n(-c2nc3ccccc3s2)c(=O)c2cc([N+](=O)[O-])ccc12
inactive: [1] 5.46 µM | [19] 24.3 µM | [2] 14.8 µM | [3] 21.2 µM | [4] 14.1 µM | [6] 7.62 µM | [7] 18.7 µM | [20] 9.2 µM | [8] 7.21 µM | [9] 6.49 µM | [10] 5.51 µM | [11] 15.6 µM | [12] 21.8 µM | [14] 19.7 µM | [16] 15 µM | [17] 17.7 µM | [18] 23.3 µM
4.04 µM: [13]

[N-]=[N+]=Nc1c(-c2ccccc2)c(=O)n(-c2ccccc2)c2ccccc12
inactive: [1] 75.7 µM | [19] 64 µM | [2] 52 µM | [3] > 100 µM | [4] 49.4 µM | [5] > 100 µM | [6] 45.7 µM | [7] 19.3 µM | [20] 49 µM | [8] 54.1 µM | [9] 27.7 µM | [10] 32.4 µM | [11] 74.3 µM | [12] 24.6 µM | [14] 67.6 µM | [15] 62.1 µM | [16] 13.2 µM | [18] 17.6 µM
38.2 µM: [13]

CN(C)/C=N/c1c2c(nc3ccccc13)CCCC2
inactive: [1] 59.8 µM | [19] 75.2 µM | [2] 38.6 µM | [3] > 100 µM | [4] 33.1 µM | [5] > 100 µM | [6] > 100 µM | [7] > 100 µM | [20] 41.5 µM | [8] 72.9 µM | [9] > 100 µM | [10] 38.5 µM | [11] > 100 µM | [12] 66.2 µM | [15] 70.8 µM | [16] > 100 µM | [17] > 100 µM | [18] > 100 µM
> 100 µM: [13]
